According to PMC11844072, “Novel 5,6-dichlorobenzimidazole derivatives as dual BRAFWT and BRAFV600E inhibitors: design, synthesis, anti-cancer activity and molecular dynamics simulations” (BMC Chemistry, 2025):

What was measured:
Assay in all cases: NCI 60 single concentration growth inhibition
Type in all cases: cell-based, human
BT-549 = details: BT-549, Breast cancer, 10 μM
Method: (§1) The synthesized dichlorobenzimidazoles 10a–p were assayed for their influence on divers cancer cell lines according to the method presented in the Additional file A.
(§2) 5. Screening of cytotoxic activity against a panel of sixty human tumor cell lines
(§3) The selected compounds by NCI were evaluated for their anticancer activity in a two-stage process. First, these compounds were screened against the full NCI 60 cell lines panel at a single high dose of 10 µM. Then, the output from the single dose screen is reported as a mean graph. […]
(§4) at five different minimal concentrations.
(§5) Assay protocol. The human tumor cell lines of the cancer screening panel are grown in RPMI 1640 medium containing 5% fetal bovine serum and 2 mM L-glutamine. For a typical screening experiment, cells are inoculated into 96 well microtiter plates in 100 µL at plating densities ranging from 5000 to 40,000 cells/well depending on the doubling time of individual cell lines. After cell inoculation, the microtiter plates are incubated at 37 °C, 5% CO 2, 95% air and 100% relative humidity for 24 h prior to addition of the experimental drugs.
(§6) After 24 h, two plates of each cell line are fixed in situ with TCA, to represent a measurement of the cell population for each cell line at the time of drug addition (Tz). The experimental drugs are solubilized in dimethyl sulfoxide at 400-fold the desired final maximum test concentration and stored frozen prior to use. At the time of drug addition, an aliquot of frozen concentrate is thawed and diluted to twice the desired final maximum test concentration with complete medium containing 50 µg/mL gentamicin. Additional four, 10-fold or ½ log serial dilutions are made to provide a total of five drug concentrations plus control.
(§7) Aliquots of […] of these different drug dilutions are added to the appropriate microtiter wells already containing […] of medium, resulting in the required final drug concentrations.
(§8) Following drug addition, the plates are incubated for an additional 48 h at 37 °C, 5% CO 2, 95% air, and 100% relative humidity. For adherent cells, the assay is terminated by the addition of cold TCA.
(§9) Cells are fixed in situ by the gentle addition of 50 µL of cold 50% (w/v) TCA (final concentration, 10% TCA) and incubated for 60 min at 4 °C. The supernatant is discarded, and the plates are washed five times with tap water and air dried. Sulforhodamine B (SRB) solution ([…]) at 0.4% (w/v) in 1% acetic acid is added to each well, and plates are incubated for 10 min at room temperature. After staining, unbound dye is removed by washing five times with 1% acetic acid and the plates are air dried. Bound stain is subsequently solubilized with 10 mM trizma base, and the absorbance is read on an automated plate reader at a wavelength of 515 nm. For suspension cells, the methodology is […]
(§10) the same except that the assay is terminated by fixing settled cells at the bottom of the wells by gently adding 50 µl of 80% TCA (final concentration, 16% TCA). Using the seven absorbance measurements [time zero, (Tz), control growth, (C), and test growth in the presence of drug at the five concentration levels (Ti)], the percentage growth is calculated at each of the drug concentrations […]
(§11) Percentage growth inhibition is calculated as: [(Ti Tz)/(C–Tz)] x 100 for concentrations for which Ti>/=Tz and [(Ti-Tz)/Tz] x 100 for concentrations for which Ti < Tz.
(§12) Three dose response parameters are calculated for each experimental agent. Growth […]
(§13) concentration resulting in a 50% reduction in the net protein increase (as measured by SRB staining) in control cells during the drug incubation. The drug concentration resulting in total growth inhibition (TGI) is calculated from Ti = Tz. […]
(§14) reduction in the measured protein at the end of the drug treatment as compared to that at the beginning) indicating a net loss of cells following treatment is calculated from [(Ti–Tz)/Tz] x 100 =
(§15) _50. Values are calculated for each of these three parameters if the level of activity is reached; […]

CAKI-1 = details: CAKI-1, Renal cancer, 10 μM
Method: as §1, §2, §3, §4, §5, §6, §7, §8, §9, §10, §11, §12, §13, §14, §15

CCRF-CEM = details: Leukemia, 10 μM
Method: as §1, §2, §3, §4, §5, §6, §7, §8, §9, §10, §11, §12, §13, §14, §15

HCT-116 = details: HCT-116, Colon cancer, 10 μM
Method: as §1, §2, §3, §4, §5, §6, §7, §8, §9, §10, §11, §12, §13, §14, §15

HL-60(TB) = details: Leukemia, 10 μM
Method: as §1, §2, §3, §4, §5, §6, §7, §8, §9, §10, §11, §12, §13, §14, §15

HS 578T = details: Breast cancer, 10 μM
Method: as §1, §2, §3, §4, §5, §6, §7, §8, §9, §10, §11, §12, §13, §14, §15

KM12 = details: KM12, Colon cancer, 10 μM
Method: as §1, §2, §3, §4, §5, §6, §7, §8, §9, §10, §11, §12, §13, §14, §15

M14 = details: M14, Melanoma, 10 μM
Method: as §1, §2, §3, §4, §5, §6, §7, §8, §9, §10, §11, §12, §13, §14, §15

MDA-MB-231/ATCC = details: Breast cancer, 10 μM
Method: as §1, §2, §3, §4, §5, §6, §7, §8, §9, §10, §11, §12, §13, §14, §15

MDA-MB-435 = details: MDA-MB-435, Melanoma, 10 μM
Method: as §1, §2, §3, §4, §5, §6, §7, §8, §9, §10, §11, §12, §13, §14, §15

MDA-MB-468 = details: MDA-MB-468, Breast cancer, 10 μM
Method: as §1, §2, §3, §4, §5, §6, §7, §8, §9, §10, §11, §12, §13, §14, §15

MOLT-4 = details: MOLT-4, Leukemia, 10 μM
Method: as §1, §2, §3, §4, §5, §6, §7, §8, §9, §10, §11, §12, §13, §14, §15

NCI-H23 = details: NCI-H23, Non-small cell lung cancer, 10 μM
Method: as §1, §2, §3, §4, §5, §6, §7, §8, §9, §10, §11, §12, §13, §14, §15

OVCAR-5 = details: OVCAR-5, Ovarian cancer, 10 μM
Method: as §1, §2, §3, §4, §5, §6, §7, §8, §9, §10, §11, §12, §13, §14, §15

RPMI-8226 = details: RPMI-8226, Leukemia, 10 μM
Method: as §1, §2, §3, §4, §5, §6, §7, §8, §9, §10, §11, §12, §13, §14, §15

RXF 393 = details: RXF 393, Renal cancer, 10 μM
Method: as §1, §2, §3, §4, §5, §6, §7, §8, §9, §10, §11, §12, §13, §14, §15

SF-268 = details: SF-268, CNS cancer, 10 μM
Method: as §1, §2, §3, §4, §5, §6, §7, §8, §9, §10, §11, §12, §13, §14, §15

SK-MEL-2 = details: SK-MEL-2, Melanoma, 10 μM
Method: as §1, §2, §3, §4, §5, §6, §7, §8, §9, §10, §11, §12, §13, §14, §15

SK-MEL-5 = details: SK-MEL-5, Melanoma, 10 μM
Method: as §1, §2, §3, §4, §5, §6, §7, §8, §9, §10, §11, §12, §13, §14, §15

T-47D = details: Breast cancer, 10 μM
Method: as §1, §2, §3, §4, §5, §6, §7, §8, §9, §10, §11, §12, §13, §14, §15

UACC-257 = details: UACC-257, Melanoma, 10 μM
Method: as §1, §2, §3, §4, §5, §6, §7, §8, §9, §10, §11, §12, §13, §14, §15

UACC-62 = details: UACC-62, Melanoma, 10 μM
Method: as §1, §2, §3, §4, §5, §6, §7, §8, §9, §10, §11, §12, §13, §14, §15

Substance | GI% (BT-549) | GI% (CAKI-1) | GI% (CCRF-CEM) | GI% (HCT-116) | GI% (HL-60(TB)) | GI% (HS 578T) | GI% (KM12) | GI% (M14) | GI% (MDA-MB-231/ATCC) | GI% (MDA-MB-435) | GI% (MDA-MB-468) | GI% (MOLT-4) | GI% (NCI-H23) | GI% (OVCAR-5) | GI% (RPMI-8226) | GI% (RXF 393) | GI% (SF-268) | GI% (SK-MEL-2) | GI% (SK-MEL-5) | GI% (T-47D) | also measured
2-(4-((2-(2-(5,6-Dichloro-2-(4-methoxyphenyl)-1H-benzo[d]imidazol-1-yl)acetyl)hydrazono)methyl) -2-methoxyphenoxy)acetic acid [Compound 10m] | – (GI% < 5%) | – (GI% < 5%) | – (GI% < 5%) | – (GI% < 5%) | – (GI% < 5%) | – (GI% < 5%) | – (GI% < 5%) | – (GI% < 5%) | – (GI% < 5%) | – (GI% < 5%) | – (GI% < 5%) | – (GI% < 5%) | 8.00% | – (GI% < 5%) | – (GI% < 5%) | – (GI% < 5%) | – (GI% < 5%) | – (GI% < 5%) | – (GI% < 5%) | – (GI% < 5%) | GI% (UACC-257): – (GI% < 5%); GI% (UACC-62): 6.42%
2-(5-((2-(2-(5,6-Dichloro-2-(4-methoxyphenyl)-1H-benzo[d]imidazol-1-yl)acetyl)hydrazono)methyl)-2-methoxyphenoxy)acetic acid [Compound 10n] | – (GI% < 5%) | – (GI% < 5%) | – (GI% < 5%) | 6.00% | – (GI% < 5%) | 6.21% | – (GI% < 5%) | – (GI% < 5%) | 11.50% | – (GI% < 5%) | 12.44% | 10.12% | 9.67% | – (GI% < 5%) | – (GI% < 5%) | – (GI% < 5%) | – (GI% < 5%) | – (GI% < 5%) | – (GI% < 5%) | – (GI% < 5%) | GI% (UACC-257): – (GI% < 5%); GI% (UACC-62): 9.71%
3-(4-((2-(2-(5,6-Dichloro-2-(4-methoxyphenyl)-1H-benzo[d]imidazol-1-yl)acetyl)hydrazono)methyl)phenoxy)propanoic acid [Compound 10i] | 11.38% | 10.19% | 10.70% | 11.45% | – (GI% < 5%) | – (GI% < 5%) | – (GI% < 5%) | – (GI% < 5%) | 12.19% | 7.59% | 10.83% | – (GI% < 5%) | 13.85% | – (GI% < 5%) | – (GI% < 5%) | – (GI% < 5%) | – (GI% < 5%) | – (GI% < 5%) | 14.39% | 27.22% | GI% (UACC-257): – (GI% < 5%); GI% (UACC-62): 10.17%
